Patent publication US7316738B2, “Milled submicron chlorothalonil with narrow particle size distribution, and uses thereof” (Phibro-Tech, Inc., priority 2004, dated 2008)
Like-named read-outs stand apart in the source and are kept apart here.

Columns and labels:
[1] = cited from earlier work
leafspot infestation = settings: cited from earlier work; for Def (0.42) defoliation: 0.42 kg chlorothalonil per ha; for Def (0.84) defoliation: 0.84 kg chlorothalonil per ha; for Def (1.26) defoliation: 1.26 kg chlorothalonil per ha
[2] = cited from earlier work; remark: listed apart in the source
[3] = Particle size (Sedigraph 5100T) of chlorothalonil milled with 0.5–0.6 mm cerium-doped zirconium oxide; format: physicochemical
Description: The laboratory-sized vertical mill was provided by CB Mills, model# L-3-J. The mill has a 2 liter capacity and is jacketed for cooling. Unless otherwise specified, ambient water was cycled through the mill cooling jacket during operation. The internal dimensions are 3.9″ diameter by 9.1″ height. The mill uses a standard 3×3″ disk agitator (mild steel) on a stainless steel shaft, and it operates at 2,620 rpm.
The media used in this Example was 0.4–0.5 mm zirconium silicate beads supplied by CB Mills. All particle size determinations were made with a Sedigraph™ 5100T manufactured by Micromeritics, which uses x-ray detection and bases calculations of size on Stokes' Law.
The same mill and conditions were used in this experiment as in experiment 1. However, the grinding media was 0.5–0.6 mm cerium-doped zirconium oxide beads obtained from CB Mills. The density of the cerium doped zirconium oxide is ˜6.0 g/cm^3. […] The total batch weight was about 600 g.

[4] = Particle size (Sedigraph 5100T) of chlorothalonil milled with 0.4–0.5 mm zirconium silicate; format: physicochemical
[5] = 0.1 cm zirconium beads, 3000 rpm, 10 minutes, US 2004/0024099
[6] = milling time 0 mins, 0.5–0.6 mm cerium-doped zirconium oxide beads
[7] = milling time 90 mins, 0.5–0.6 mm cerium-doped zirconium oxide beads
[8] = milling time 240 mins, 0.5–0.6 mm cerium-doped zirconium oxide beads
[9] = milling time 0 mins, 0.4–0.5 mm zirconium silicate beads
[10] = milling time 30 mins, 0.4–0.5 mm zirconium silicate beads
[11] = milling time 60 mins, 0.4–0.5 mm zirconium silicate beads
[12] = milling time 90 mins, 0.4–0.5 mm zirconium silicate beads
[13] = milling time 120 mins, 0.4–0.5 mm zirconium silicate beads
[14] = milling time 150 mins, 0.4–0.5 mm zirconium silicate beads
[15] = milling time 180 mins, 0.4–0.5 mm zirconium silicate beads
[16] = milling time 270 mins, 0.4–0.5 mm zirconium silicate beads
[17] = milling time 450 mins, 0.4–0.5 mm zirconium silicate beads
[18] = 0.1 cm zirconia, 70% to 80% loading, 10 minutes, US 2004/0063847, 2003/0040569

## manganese ethylenebis(dithiocarbamate) [Maneb]
[1]; milled with 2 mm glass beads, U.S. Pat. No. 5,360,783 Example 2
  mean particle diameter: 1.7–1.8 micons

## N#Cc1c(Cl)c(Cl)c(Cl)c(C#N)c1Cl [Air, chlorothalonil]
Leafspot infestation; 1974 data, air milled
  Def (0.42) defoliation: 39
  Def (0.84) defoliation: 25
  Def (1.26) defoliation: 19
Leafspot infestation; 1975 data, air milled
  Def (0.42) defoliation: 35
  Def (0.84) defoliation: 34
  Def (1.26) defoliation: 27
[2]; 1974 data, air milled
  <1μ, % (percentage of particles with a diameter less than 1 micron): 7%
  med. μ (median diameter in microns): 3.3 microns
[2]; 1975 data, air milled
  <1μ, % (percentage of particles with a diameter less than 1 micron): 5%
  med. μ (median diameter in microns): 3.3 microns

## N#Cc1c(Cl)c(Cl)c(Cl)c(C#N)c1Cl [chlorothalonil, 2,4,5,6-tetrachloro-1,3-dicyanobenzene]
[1]; [5]
  mean volume diameter (d50): less than 3 microns
  size that 90% of the number of particles are below: below 0.5 microns
[1]; 40% chlorothalonil, 5.6% zinc oxide formulation, wet mill or high speed media mill, U.S. Pat. No. 5,667,795
  average particle size of the product: 3 microns
[1]; milled with 2 mm glass beads, U.S. Pat. No. 5,360,783 Test 5
  average particle size diameter: 2.3 microns
[3]; after 90 minutes of milling (first statement)
  increase in number of particles per unit of mass over the standard products (factor): more than 30
[3]; after 90 minutes of milling (second statement)
  increase in number of particles per unit of mass over the standard products (factor): more than 1000
[3]; [6]
  Volume % With Diameter Greater Than 1 μm: 92 Volume %
  Volume % With Diameter Greater Than 2 μm: 77 Volume %
  Volume % With Diameter Greater Than 5 μm: 30 Volume %
  Volume % With Diameter Greater Than 10 μm: 8 Volume %
[3]; [7]
  Volume % With Diameter Greater Than 0.4 μm: 22 Volume %
  Volume % With Diameter Greater Than 1 μm: 3 Volume %
  Volume % With Diameter Greater Than 2 μm: 3 Volume %
  Volume % With Diameter Greater Than 5 μm: 3 Volume %
  Volume % With Diameter Greater Than 10 μm: 3 Volume %
  d50: 0.31 μm
[3]; [8]
  Volume % With Diameter Greater Than 0.2 μm: 51 Volume %
  Volume % With Diameter Greater Than 0.4 μm: 3 Volume %
  Volume % With Diameter Greater Than 1 μm: 3 Volume %
  Volume % With Diameter Greater Than 2 μm: 2 Volume %
  Volume % With Diameter Greater Than 5 μm: 1 Volume %
  Volume % With Diameter Greater Than 10 μm: 0 Volume %
  d50: 0.21 μm
[3]; obtainable in 90 minutes, 0.5 mm zirconia milling media
  d50: less than 1 micron
[4]; at 60 minutes, 0.4–0.5 mm zirconium silicate media
  d90: about 2 microns
[4]; before wet milling
  starting particle size: 3–4 microns
[4]; [9]
  Volume % With Diameter Greater Than 2 μm: 95 Volume %
  Volume % With Diameter Greater Than 5 μm: 48 Volume %
  Volume % With Diameter Greater Than 10 μm: 10 Volume %
  d50: 4.9 μm
[4]; [10]
  Volume % With Diameter Greater Than 1 μm: 68 Volume %
  Volume % With Diameter Greater Than 2 μm: 21 Volume %
  Volume % With Diameter Greater Than 5 μm: 4 Volume %
  Volume % With Diameter Greater Than 10 μm: 0 Volume %
  d50: 1.3 μm
[4]; [11]
  Volume % With Diameter Greater Than 1 μm: 50 Volume %
  Volume % With Diameter Greater Than 2 μm: 11 Volume %
  Volume % With Diameter Greater Than 5 μm: 2 Volume %
  Volume % With Diameter Greater Than 10 μm: 4 Volume %
  d50: 1.0 μm
[4]; [12]
  Volume % With Diameter Greater Than 1 μm: 94 Volume %
  Volume % With Diameter Greater Than 2 μm: 22 Volume %
  Volume % With Diameter Greater Than 5 μm: 23 Volume %
  Volume % With Diameter Greater Than 10 μm: 18 Volume %
  d50: 1.4 μm
[4]; [13]
  Volume % With Diameter Greater Than 2 μm: 4 Volume %
  Volume % With Diameter Greater Than 5 μm: 0 Volume %
  Volume % With Diameter Greater Than 10 μm: 2 Volume %
[4]; [14]
  Volume % With Diameter Greater Than 1 μm: 58 Volume %
  Volume % With Diameter Greater Than 2 μm: 6 Volume %
  Volume % With Diameter Greater Than 5 μm: 2 Volume %
  Volume % With Diameter Greater Than 10 μm: 0 Volume %
[4]; [15]
  Volume % With Diameter Greater Than 1 μm: 53 Volume %
  Volume % With Diameter Greater Than 2 μm: 7 Volume %
  Volume % With Diameter Greater Than 5 μm: 2 Volume %
  Volume % With Diameter Greater Than 10 μm: 2 Volume %
[4]; [16]
  Volume % With Diameter Greater Than 1 μm: 54 Volume %
  Volume % With Diameter Greater Than 2 μm: 8 Volume %
  Volume % With Diameter Greater Than 5 μm: 0 Volume %
  Volume % With Diameter Greater Than 10 μm: 2 Volume %
[4]; [17]
  Volume % With Diameter Greater Than 1 μm: 56 Volume %
  Volume % With Diameter Greater Than 2 μm: 21 Volume %
  Volume % With Diameter Greater Than 5 μm: 8 Volume %
  Volume % With Diameter Greater Than 10 μm: 12 Volume %
[4]; within about one hour, 0.4–0.5 mm zirconium silicate media
  d50: ~1 micron

## CC1OC(C)OC(C)OC(C)O1 (stereo not shown) [metaldehyde]
[1]; [18]
  diameter that 90% of the particles are below: less than 2.5 microns
  mean volume diameter: less than 1.5 microns

## N#Cc1c(Cl)c(Cl)c(Cl)c(C#N)c1Cl [Wet, chlorothalonil]
Leafspot infestation; 1974 data, wet milled 3 hr
  Def (0.42) defoliation: 33
  Def (0.84) defoliation: 24
  Def (1.26) defoliation: 15.5
Leafspot infestation; 1974 data, wet milled 9 hr
  Def (0.42) defoliation: 32
  Def (0.84) defoliation: 17.2
  Def (1.26) defoliation: 14.1
Leafspot infestation; 1974 data, wet milled 13 hr
  Def (0.42) defoliation: 27
  Def (0.84) defoliation: 23
  Def (1.26) defoliation: 15.4
Leafspot infestation; 1975 data, wet milled 3 hr
  Def (0.42) defoliation: 35
  Def (0.84) defoliation: 28
  Def (1.26) defoliation: 28
Leafspot infestation; 1975 data, wet milled >9 hr
  Def (0.42) defoliation: 32
  Def (0.84) defoliation: 29
  Def (1.26) defoliation: 29
[2]; 1974 data, wet milled 3 hr
  <1μ, % (percentage of particles with a diameter less than 1 micron): 8%
  med. μ (median diameter in microns): 3.8 microns
[2]; 1974 data, wet milled 9 hr
  <1μ, % (percentage of particles with a diameter less than 1 micron): 22%
  med. μ (median diameter in microns): 1.75 microns
[2]; 1974 data, wet milled 13 hr
  <1μ, % (percentage of particles with a diameter less than 1 micron): 24%
  med. μ (median diameter in microns): 1.6 microns
[2]; 1975 data, wet milled 3 hr
  <1μ, % (percentage of particles with a diameter less than 1 micron): 10%
  med. μ (median diameter in microns): 3.7 microns
[2]; 1975 data, wet milled >9 hr
  <1μ, % (percentage of particles with a diameter less than 1 micron): 22%
  med. μ (median diameter in microns): 1.6 microns
